Measured values from patent US20150239831A1, “INHIBITORS OF CENTRAL NERVOUS SYSTEM VASOACTIVE INHIBITORY PEPTIDE RECEPTOR 2” (The Trustees Of Columbia University In The City Of New York, priority 2012, published 2015).

Key:
Format in all cases: cell-based
Parameters in all cases: expressed in transfected cells; host or cells: HEK293 cells transfected with VIPR2 in pCDNA3.1 (as described)
VIPR2 [1] = target: T1, VIPR2 (Homo sapiens, UniProt P41587); test: Inhibition of VIP-induced β-arrestin recruitment (% Activity Arrestin)
T1 sequence (P41587 24-438): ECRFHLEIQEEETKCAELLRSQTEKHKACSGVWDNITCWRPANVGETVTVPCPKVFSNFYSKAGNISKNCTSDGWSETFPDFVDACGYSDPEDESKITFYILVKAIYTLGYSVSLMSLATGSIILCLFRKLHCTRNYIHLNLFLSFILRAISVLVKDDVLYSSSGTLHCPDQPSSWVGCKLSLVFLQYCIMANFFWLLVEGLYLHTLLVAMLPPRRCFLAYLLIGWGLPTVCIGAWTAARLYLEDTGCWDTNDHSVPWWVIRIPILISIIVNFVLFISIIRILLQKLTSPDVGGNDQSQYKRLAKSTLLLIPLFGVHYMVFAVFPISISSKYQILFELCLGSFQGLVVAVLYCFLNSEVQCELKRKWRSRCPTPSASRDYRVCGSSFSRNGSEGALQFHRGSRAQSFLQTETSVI
Summary of the method: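 HEK293 cells stably expressing β-arrestin2–β-gal EA, transiently transfected with ProLink-tagged hVIPR2, plated overnight; inhibitor added for 2 h at 37 °C, 5% CO2. Receptor–arrestin complementation read by chemiluminescence after 5 min–1 h at room temperature; inhibition of VIP-induced recruitment reported as % activity.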

VIPR2 [2] = target: T1, VIPR2; test: % Activity: inhibition of VIP-induced cAMP elevation and β-arrestin recruitment (Table 2)
Summary of the method: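 cAMP: HEK293 stably expressing hVIPR2, inhibitor plus VIP 30 min, cAMP by HTRF (665/620 nm ratio ×10,000). β-arrestin: HEK293 with β-arrestin2-β-gal-EA, transiently transfected with VIPR2-ProLink; inhibitor 2 h at 37° C, enzyme complementation read by luminescence.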

VIPR2 [3] = target: T1, VIPR2; test: Inhibition of VIP-induced cAMP elevation (% Activity cAMP)
Summary of the method: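 HEK293 cells stably transfected with human VIPR2 were incubated with inhibitor and VIP for 30 min, then cAMP was detected by HTRF after at least 1 h at room temperature. The 665/620 nm ratio ×10,000 was calculated.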

| Compound | inhibition at 0.5 µM (VIPR2 [1]; Batch 1) [%] | inhibition at 1 µM (VIPR2 [1]; Batch 1) [%] | inhibition at 5 µM (VIPR2 [1]; Batch 1) [%] | % Activity (VIPR2 [2]) [%] | inhibition at 0.5 µM (VIPR2 [3]; Batch 1) [%] | inhibition at 1 µM (VIPR2 [3]; Batch 1) [%] | inhibition at 5 µM (VIPR2 [3]; Batch 1) [%] | inhibition at 0.5 µM (VIPR2 [1]; Batch 2) [%] | inhibition at 1 µM (VIPR2 [1]; Batch 2) [%] | inhibition at 5 µM (VIPR2 [1]; Batch 2) [%] | inhibition at 0.5 µM (VIPR2 [3]; Batch 2) [%] | inhibition at 1 µM (VIPR2 [3]; Batch 2) [%] | inhibition at 5 µM (VIPR2 [3]; Batch 2) [%] | inhibition at 0.5 µM (VIPR2 [1]; Batch 3) [%] | inhibition at 1 µM (VIPR2 [1]; Batch 3) [%] | inhibition at 5 µM (VIPR2 [1]; Batch 3) [%] | inhibition at 0.5 µM (VIPR2 [3]; Batch 3) [%] | inhibition at 1 µM (VIPR2 [3]; Batch 3) [%] | inhibition at 5 µM (VIPR2 [3]; Batch 3) [%] |
| --- | --- | --- | --- | --- | --- | --- | --- | --- | --- | --- | --- | --- | --- | --- | --- | --- | --- | --- | --- |
| O=C(NC[C@@H](O)C[C@@H](Cc1ccccc1)C(=O)N[C@H]1c2ccccc2C[C@H]1O)c1ccc2ccccc2c1 [B] | -2.9 | 11.1 | 9.7 | 16.6 | 13.2 | 16.3 | 23.5 |  |  |  |  |  |  |  |  |  |  |  |  |
| C#CCCCC(=O)NC[C@@H](O)C[C@@H](Cc1ccccc1)C(=O)N[C@H]1c2ccccc2C[C@H]1O [Compound A23] | 45.8 | 16.1 | 25.8 | 26.2 | 20.8 | 20.2 | 26.6 |  |  |  |  |  |  |  |  |  |  |  |  |
| O=C(NN1CCCCC1)[C@@H](Cc1ccccc1)C[C@H](O)CNS(=O)(=O)c1ccc([N+](=O)[O-])cc1 [Compound B6B] |  |  |  | 5.35 |  |  |  | -0.9 | 3.3 | 4.7 | 9.2 | 12.3 | 6 |  |  |  |  |  |  |
| O=C(NCc1ccccc1)c1ccc(S(=O)(=O)NC[C@@H](O)C[C@@H](Cc2ccccc2)C(=O)N[C@H]2c3ccccc3C[C@H]2O)cc1 [Compound X098] |  |  |  | 41.4 |  |  |  |  |  |  |  |  |  | 4.8 | -2 | -7.7 | 25 | 32.3 | 90.6 |
| O=C(NCc1ccccc1)[C@@H](Cc1ccccc1)C[C@H](O)CNS(=O)(=O)c1ccc([N+](=O)[O-])cc1 [Compound B3B] |  |  |  | 6.05 |  |  |  | -0.3 | -4.1 | 7.2 | -1 | 1.5 | 4.9 |  |  |  |  |  |  |
| CC(C)C(=O)NC[C@@H](O)C[C@@H](Cc1ccccc1)C(=O)N[C@H]1c2ccccc2C[C@H]1O [Compound A13] | -11.8 | -10.7 | -16.3 | −8.6 | 0.7 | 2.6 | -0.9 |  |  |  |  |  |  |  |  |  |  |  |  |
| O=C(NC[C@@H](O)C[C@@H](Cc1ccccc1)C(=O)N[C@H]1c2ccccc2C[C@H]1O)c1ccco1 [Compound A2] | 30.3 | 27.7 | 33.3 | 26.2 | 20.8 | 22.5 | 19.1 |  |  |  |  |  |  |  |  |  |  |  |  |
| CCNC(=O)[C@H](Cc1ccccc1)C[C@H](O)CNS(=O)(=O)c1ccc([N+](=O)[O-])cc1 [Compound B16A] |  |  |  | −9.25 |  |  |  | 15.2 | 0.1 | -12.3 | -7.1 | -0.4 | -6.2 |  |  |  |  |  |  |
| O=C([C@@H](Cc1ccccc1)C[C@H](O)CNS(=O)(=O)c1ccc([N+](=O)[O-])cc1)N1CCCCC1 [Compound B18B] |  |  |  | 12.15 |  |  |  | 0.5 | 9.2 | 14.9 | 14.2 | 14.2 | 9.4 |  |  |  |  |  |  |
| CCN(CC)C(=O)[C@@H](Cc1ccccc1)C[C@H](O)CNS(=O)(=O)c1ccc([N+](=O)[O-])cc1 [Compound B15B] |  |  |  | −6.6 |  |  |  | -3.6 | 1.2 | -2.7 | 0.5 | -8.4 | -10.5 |  |  |  |  |  |  |
